# Source: US8431540B2, “Modified lysine-mimetic compounds” (Zealand Pharma A/S, priority 2005, dated 2013)
# System: isolated rat atrial strip
# Assay: Isolated atrial strip model of metabolic stress induced atrial conduction slowing
# Conditions: rat left atrial strip; 40 min glucose-free, non-oxygenated buffer; control decreased by 22%
# Description: Peptides suitable for administration to cardiac cells can be identified in an in vitro model as described by Haugan et al. (J. Cardiovasc. Electrophysiol., 16, 537-545 (2005)).
# Rats (300-400 g) are killed by a sharp blow on the neck. The heart is rapidly excised and transferred to a small dish containing 37° oxygenated modified Tyrodes buffer containing (in mM): NaCl 136, KCl 4, MgCl2 0.8, CaCl2 1.8 HEPES 5, MES 5, Glucose 6, pH 7.3. The left atrium is carefully dissected and a tissue sample of approximately 2×6 mm is taken from the left atrial appendage and placed in a tissue chamber (volume 5 ml), (Steiert Organ Bath, Hugo Sach Electronic, Germany). The chamber is perfused throughout the study with 37° C. oxygenated Tyrodes buffer at a rate of 10 ml/min.
# A bipolar stimulation electrode (Teflon coated stainless steel, diameter […]) is placed at one end of the tissue. Stimulation is performed at 1 Hz using rectangular pulses at double threshold (duration of stimulus 0.2 ms) delivered by a stimulator (Hugo Sachs, Type 215) through an isolation unit (Universal Isolated Stimulator Unit type 263, Hugo Sachs, Germany).
# Two separate microelectrodes of pure iridium (World Precision Instruments, tip-impedance 3.5-4.0 MΩ) are placed on a line along the long-axis of the preparation for recording of atrial CV. […]
smiles,measurement,value
"NCC(=O)N1C[C@H](NC(=O)c2ccccc2)C[C@H]1C(=O)O [Compound 2, (2S4R)1-(2-Amino-acetyl)-4-benzoylamino-pyrrolidine-2-carboxylic acid]",atrial conduction velocity change compared to baseline,did not change compared to baseline
